This note sets out measurements from ChEMBL document CHEMBL3991601, “The target landscape of clinical kinase drugs” (Science, 2017).

For orientation: Kd means the equilibrium constant for the complex coming apart.

The target in experiment [1] is Ribosomal protein S6 kinase alpha-3 (Homo sapiens, UniProt P51812).
Experiment [2] addresses Adenylate kinase 2, mitochondrial (Homo sapiens, UniProt P54819).
For experiment [3], the target named is Tyrosine-protein kinase Yes (Homo sapiens, UniProt P07947).
Sequence of Tyrosine-protein kinase Yes (P07947 whole entry): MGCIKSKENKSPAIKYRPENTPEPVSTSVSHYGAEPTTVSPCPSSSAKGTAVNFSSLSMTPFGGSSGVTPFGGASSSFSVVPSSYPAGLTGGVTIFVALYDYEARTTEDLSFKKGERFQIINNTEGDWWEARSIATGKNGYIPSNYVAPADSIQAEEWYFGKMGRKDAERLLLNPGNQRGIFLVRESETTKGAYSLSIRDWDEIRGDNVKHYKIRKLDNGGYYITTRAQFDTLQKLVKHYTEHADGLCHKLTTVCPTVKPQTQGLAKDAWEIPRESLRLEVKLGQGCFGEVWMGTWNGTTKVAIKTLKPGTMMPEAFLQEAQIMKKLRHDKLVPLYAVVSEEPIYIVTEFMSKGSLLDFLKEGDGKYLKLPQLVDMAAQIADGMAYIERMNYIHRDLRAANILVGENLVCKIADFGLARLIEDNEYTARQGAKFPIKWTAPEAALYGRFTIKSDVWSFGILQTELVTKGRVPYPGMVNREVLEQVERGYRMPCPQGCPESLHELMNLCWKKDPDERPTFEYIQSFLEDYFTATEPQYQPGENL
Experiment [4] concerns the target T1, Dual specificity mitogen-activated protein kinase kinase 5 (Homo sapiens, UniProt Q13163).
T1 sequence (Q13163 whole entry): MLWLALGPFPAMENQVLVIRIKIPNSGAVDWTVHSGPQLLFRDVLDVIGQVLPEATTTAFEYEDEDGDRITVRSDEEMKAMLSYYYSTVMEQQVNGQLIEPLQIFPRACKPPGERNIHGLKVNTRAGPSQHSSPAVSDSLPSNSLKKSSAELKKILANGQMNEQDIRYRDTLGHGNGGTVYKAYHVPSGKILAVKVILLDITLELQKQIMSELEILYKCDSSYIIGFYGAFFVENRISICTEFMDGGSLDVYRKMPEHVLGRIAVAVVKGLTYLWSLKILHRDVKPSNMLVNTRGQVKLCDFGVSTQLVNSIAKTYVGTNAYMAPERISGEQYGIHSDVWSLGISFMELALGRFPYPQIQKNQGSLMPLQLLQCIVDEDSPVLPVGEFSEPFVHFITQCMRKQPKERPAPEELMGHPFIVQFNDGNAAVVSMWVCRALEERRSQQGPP

Experiment [5] addresses T2, STE20-related kinase adapter protein alpha (Homo sapiens, UniProt Q7RTN6).
T2 sequence (Q7RTN6 whole entry): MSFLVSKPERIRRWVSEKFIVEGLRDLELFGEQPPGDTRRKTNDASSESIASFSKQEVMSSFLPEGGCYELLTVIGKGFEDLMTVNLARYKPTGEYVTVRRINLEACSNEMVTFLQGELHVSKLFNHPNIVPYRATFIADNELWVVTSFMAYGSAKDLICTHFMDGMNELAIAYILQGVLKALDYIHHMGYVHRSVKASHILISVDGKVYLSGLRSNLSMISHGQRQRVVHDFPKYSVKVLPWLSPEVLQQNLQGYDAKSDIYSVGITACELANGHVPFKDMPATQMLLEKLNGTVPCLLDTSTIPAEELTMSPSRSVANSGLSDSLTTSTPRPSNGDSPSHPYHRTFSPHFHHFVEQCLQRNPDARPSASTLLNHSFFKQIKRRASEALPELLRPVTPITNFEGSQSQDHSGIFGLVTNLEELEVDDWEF

Experiment [6] addresses T3, MAP kinase-activated protein kinase 5 (Homo sapiens, UniProt Q8IW41).
T3 sequence (Q8IW41 whole entry): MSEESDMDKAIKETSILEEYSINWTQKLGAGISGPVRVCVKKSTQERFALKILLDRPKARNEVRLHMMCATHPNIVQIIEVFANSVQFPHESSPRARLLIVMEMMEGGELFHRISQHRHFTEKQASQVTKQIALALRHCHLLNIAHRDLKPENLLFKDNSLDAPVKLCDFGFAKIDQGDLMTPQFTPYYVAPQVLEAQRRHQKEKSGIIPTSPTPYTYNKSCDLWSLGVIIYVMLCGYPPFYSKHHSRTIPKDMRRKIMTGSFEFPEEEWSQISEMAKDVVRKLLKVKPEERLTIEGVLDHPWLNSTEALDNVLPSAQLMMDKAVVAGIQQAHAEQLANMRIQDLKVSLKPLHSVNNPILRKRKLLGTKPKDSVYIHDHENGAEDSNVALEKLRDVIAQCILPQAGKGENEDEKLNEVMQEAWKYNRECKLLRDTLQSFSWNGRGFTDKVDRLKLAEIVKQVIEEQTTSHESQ

Experiment [7] addresses Cyclin-dependent kinase 6 (Homo sapiens, UniProt Q00534).
Experiment [8] addresses MAP/microtubule affinity-regulating kinase 3 (Homo sapiens, UniProt P27448).
Experiment [9] has as its target T4, Mitogen-activated protein kinase kinase kinase 6 (Homo sapiens, UniProt O95382).
T4 sequence (O95382 whole entry): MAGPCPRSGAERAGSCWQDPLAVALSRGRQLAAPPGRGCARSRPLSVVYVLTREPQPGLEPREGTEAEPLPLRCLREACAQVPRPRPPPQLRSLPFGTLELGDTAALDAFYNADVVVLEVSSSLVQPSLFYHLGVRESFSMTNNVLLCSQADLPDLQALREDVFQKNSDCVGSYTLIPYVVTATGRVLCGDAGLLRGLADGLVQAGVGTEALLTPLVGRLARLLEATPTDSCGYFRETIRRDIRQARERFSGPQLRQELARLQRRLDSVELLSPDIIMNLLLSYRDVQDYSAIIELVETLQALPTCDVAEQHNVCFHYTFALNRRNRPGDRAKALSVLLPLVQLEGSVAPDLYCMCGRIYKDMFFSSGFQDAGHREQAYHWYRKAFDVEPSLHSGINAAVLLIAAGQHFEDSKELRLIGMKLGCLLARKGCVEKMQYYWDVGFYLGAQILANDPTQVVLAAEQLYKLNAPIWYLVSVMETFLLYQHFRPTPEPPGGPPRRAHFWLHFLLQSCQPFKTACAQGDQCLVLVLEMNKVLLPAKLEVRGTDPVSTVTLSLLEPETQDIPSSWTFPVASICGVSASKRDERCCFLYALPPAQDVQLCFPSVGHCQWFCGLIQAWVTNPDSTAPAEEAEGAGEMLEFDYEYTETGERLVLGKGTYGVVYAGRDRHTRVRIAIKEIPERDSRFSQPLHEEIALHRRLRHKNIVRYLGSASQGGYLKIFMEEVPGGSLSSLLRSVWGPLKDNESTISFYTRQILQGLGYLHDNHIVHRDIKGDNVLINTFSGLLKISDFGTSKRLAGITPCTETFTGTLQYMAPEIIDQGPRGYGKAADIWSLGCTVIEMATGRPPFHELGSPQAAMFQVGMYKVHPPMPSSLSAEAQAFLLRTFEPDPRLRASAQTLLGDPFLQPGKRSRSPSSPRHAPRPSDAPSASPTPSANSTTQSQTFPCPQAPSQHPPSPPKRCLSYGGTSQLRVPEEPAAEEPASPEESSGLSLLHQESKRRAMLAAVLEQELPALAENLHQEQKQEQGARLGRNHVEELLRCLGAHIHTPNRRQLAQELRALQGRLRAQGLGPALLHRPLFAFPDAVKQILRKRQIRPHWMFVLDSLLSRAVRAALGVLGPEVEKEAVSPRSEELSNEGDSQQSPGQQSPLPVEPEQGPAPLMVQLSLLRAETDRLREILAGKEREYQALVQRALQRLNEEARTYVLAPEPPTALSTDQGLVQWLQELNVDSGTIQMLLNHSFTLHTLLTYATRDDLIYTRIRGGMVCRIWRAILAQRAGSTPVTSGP

Experiment [10] concerns the target Epidermal growth factor receptor (Homo sapiens, UniProt P00533).

Calls of active or inactive are those of the source. Rule as the data show it, for most assays here: actives have a measured Kd and inactives only a lower limit.
Also: in the data inactive means no Kd found up to 30 µM.

Sequence of MAP/microtubule affinity-regulating kinase 3 (P27448 whole entry): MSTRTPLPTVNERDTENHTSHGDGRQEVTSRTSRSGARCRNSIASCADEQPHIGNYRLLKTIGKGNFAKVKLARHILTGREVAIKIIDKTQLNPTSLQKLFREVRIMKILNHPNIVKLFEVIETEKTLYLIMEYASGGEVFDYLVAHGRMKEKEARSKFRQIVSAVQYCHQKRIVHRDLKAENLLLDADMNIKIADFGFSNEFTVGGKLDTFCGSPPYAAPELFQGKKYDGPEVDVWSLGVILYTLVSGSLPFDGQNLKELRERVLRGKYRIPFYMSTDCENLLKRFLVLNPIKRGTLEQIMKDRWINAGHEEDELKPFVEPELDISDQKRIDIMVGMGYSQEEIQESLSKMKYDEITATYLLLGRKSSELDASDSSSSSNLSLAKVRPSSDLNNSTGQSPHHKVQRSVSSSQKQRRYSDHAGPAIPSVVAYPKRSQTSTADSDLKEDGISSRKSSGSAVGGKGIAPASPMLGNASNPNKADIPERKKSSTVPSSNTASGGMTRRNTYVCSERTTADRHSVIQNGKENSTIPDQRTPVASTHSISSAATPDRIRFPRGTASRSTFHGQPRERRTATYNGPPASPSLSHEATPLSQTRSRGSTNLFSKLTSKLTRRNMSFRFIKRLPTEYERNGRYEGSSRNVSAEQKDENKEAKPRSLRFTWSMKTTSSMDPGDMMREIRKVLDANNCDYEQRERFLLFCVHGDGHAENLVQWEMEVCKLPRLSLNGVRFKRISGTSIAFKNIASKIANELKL
Sequence of Cyclin-dependent kinase 6 (Q00534 whole entry): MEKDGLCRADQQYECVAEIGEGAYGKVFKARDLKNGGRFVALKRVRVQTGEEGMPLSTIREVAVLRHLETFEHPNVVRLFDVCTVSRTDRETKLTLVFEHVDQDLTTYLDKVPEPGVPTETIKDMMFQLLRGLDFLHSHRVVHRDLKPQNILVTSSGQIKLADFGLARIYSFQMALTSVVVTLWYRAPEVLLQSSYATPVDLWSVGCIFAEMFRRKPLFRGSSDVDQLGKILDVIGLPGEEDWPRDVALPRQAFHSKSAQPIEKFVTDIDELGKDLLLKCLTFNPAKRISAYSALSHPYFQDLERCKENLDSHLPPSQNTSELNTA
Sequence of Epidermal growth factor receptor (P00533 whole entry): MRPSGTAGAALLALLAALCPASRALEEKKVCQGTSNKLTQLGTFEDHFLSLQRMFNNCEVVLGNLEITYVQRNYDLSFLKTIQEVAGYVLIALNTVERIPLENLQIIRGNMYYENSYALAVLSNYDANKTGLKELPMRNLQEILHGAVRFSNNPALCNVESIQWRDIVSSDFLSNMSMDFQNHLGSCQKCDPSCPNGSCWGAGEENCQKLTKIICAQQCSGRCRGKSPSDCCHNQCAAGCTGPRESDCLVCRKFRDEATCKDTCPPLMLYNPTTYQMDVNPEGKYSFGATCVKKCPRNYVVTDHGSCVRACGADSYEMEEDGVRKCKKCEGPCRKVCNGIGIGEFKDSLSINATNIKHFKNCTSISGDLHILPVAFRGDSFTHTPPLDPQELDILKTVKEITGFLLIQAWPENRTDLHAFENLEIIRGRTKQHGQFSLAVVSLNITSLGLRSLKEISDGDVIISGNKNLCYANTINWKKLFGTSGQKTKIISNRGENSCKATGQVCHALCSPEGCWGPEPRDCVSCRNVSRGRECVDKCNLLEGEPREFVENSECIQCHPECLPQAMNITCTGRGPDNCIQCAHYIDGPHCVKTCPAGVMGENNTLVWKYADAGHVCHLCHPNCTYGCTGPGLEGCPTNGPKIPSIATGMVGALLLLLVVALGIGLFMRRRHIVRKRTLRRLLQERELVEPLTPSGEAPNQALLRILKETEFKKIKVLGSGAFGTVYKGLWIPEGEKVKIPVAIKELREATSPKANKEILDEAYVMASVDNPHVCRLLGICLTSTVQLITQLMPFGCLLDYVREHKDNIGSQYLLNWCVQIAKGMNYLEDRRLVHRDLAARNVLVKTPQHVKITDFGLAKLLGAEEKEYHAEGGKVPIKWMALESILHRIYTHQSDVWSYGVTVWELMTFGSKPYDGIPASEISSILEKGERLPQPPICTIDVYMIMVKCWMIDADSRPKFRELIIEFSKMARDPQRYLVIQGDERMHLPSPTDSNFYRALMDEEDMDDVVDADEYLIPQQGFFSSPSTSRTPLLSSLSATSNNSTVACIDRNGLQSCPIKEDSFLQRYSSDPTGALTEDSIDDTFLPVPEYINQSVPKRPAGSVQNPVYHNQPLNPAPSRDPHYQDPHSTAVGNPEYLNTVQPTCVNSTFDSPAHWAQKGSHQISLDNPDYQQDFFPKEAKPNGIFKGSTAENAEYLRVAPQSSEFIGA
Sequence of Ribosomal protein S6 kinase alpha-3 (P51812 whole entry): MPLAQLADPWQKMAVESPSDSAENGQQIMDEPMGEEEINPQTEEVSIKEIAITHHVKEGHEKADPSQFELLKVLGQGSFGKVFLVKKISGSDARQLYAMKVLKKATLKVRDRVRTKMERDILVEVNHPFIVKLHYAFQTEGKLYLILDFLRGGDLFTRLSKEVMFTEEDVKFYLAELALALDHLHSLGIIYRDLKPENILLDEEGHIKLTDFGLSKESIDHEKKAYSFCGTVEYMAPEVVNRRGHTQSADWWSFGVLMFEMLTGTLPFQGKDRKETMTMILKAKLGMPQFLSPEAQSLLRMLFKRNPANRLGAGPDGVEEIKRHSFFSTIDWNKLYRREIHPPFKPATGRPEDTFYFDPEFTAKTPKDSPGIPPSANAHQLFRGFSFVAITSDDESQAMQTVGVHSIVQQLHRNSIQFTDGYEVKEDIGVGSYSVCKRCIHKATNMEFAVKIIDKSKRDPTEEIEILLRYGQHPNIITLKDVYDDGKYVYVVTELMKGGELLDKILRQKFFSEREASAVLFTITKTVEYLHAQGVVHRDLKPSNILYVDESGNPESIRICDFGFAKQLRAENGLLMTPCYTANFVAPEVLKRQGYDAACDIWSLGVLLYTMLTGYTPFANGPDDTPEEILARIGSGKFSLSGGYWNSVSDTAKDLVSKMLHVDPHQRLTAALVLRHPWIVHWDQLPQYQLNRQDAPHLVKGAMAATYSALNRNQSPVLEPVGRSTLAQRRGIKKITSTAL

`C[C@@H](Oc1cc(C(=O)Nc2ccc(C(=O)N3CCN(C)CC3)cc2)nnc1N)c1c(Cl)ccc(F)c1Cl`: the Kd in experiment [1], in experiment [2], in [3], in [4], in [5] and in experiment [6] was > 30 µM (inactive) each time. The Kd in experiment [7], in experiment [8], in [9] and in experiment [10] was > 30 µM (inactive) in each case.

As to `C=CC(=O)N1CCC[C@H](n2c(=O)n(-c3ccc(Oc4ccccc4)cc3)c3c(N)ncnc32)C1`, the Kd is > 30 µM (inactive) in experiment [1]; > 30 µM (inactive) in [2]; 0.005 µM in experiment [3]; > 30 µM (inactive) in [4]; > 30 µM (inactive) in experiment [5]; > 30 µM (inactive) in experiment [6]. Moreover, the Kd in experiment [7] was > 30 µM (inactive); in experiment [8], > 30 µM (inactive); in [9], > 30 µM (inactive); in experiment [10], 0.019 µM (active).

Regarding `Cc1nc2cc(-c3nn(C(C)C)c4ncnc(N)c34)ccc2o1`, the Kd in experiment [1], in [2], in experiment [3], in experiment [5], in experiment [6] and in experiment [7] was > 30 µM (inactive) each time. In addition, the Kd in [8], in experiment [9] and in experiment [10] was > 30 µM (inactive) throughout.

Take `COCc1c(-c2ccc(NC(=O)Nc3cc(C(F)(F)F)ccc3F)c(F)c2)c2c(N)ncnn2c1CN1CCOCC1`: the Kd in experiment [1] is 5.31 µM (active); in [2], > 30 µM (inactive); in experiment [3], > 30 µM (inactive); in experiment [4], > 30 µM (inactive); in [5], > 30 µM (inactive); in [6] it was > 30 µM (inactive). Further, the Kd in experiment [7], in experiment [8], in experiment [9] and in experiment [10] was > 30 µM (inactive) throughout.

`Nc1ncnc2c1c(-c1cccc(OCc3ccccc3)c1)cn2[C@H]1C[C@@H](CN2CCC2)C1` [AEW-541]: the Kd in [1] is > 30 µM (inactive); in [2], > 30 µM (inactive); in [3] it was 0.337 µM (active); in [4], 0.146 µM (active); in experiment [5] it was > 30 µM (inactive); in [6] it was > 30 µM (inactive). Moreover, the Kd in experiment [7], in [8], in [9] and in [10] was > 30 µM (inactive) each time.

On to `Cc1nc(NC(=O)N2CCC[C@H]2C(N)=O)sc1-c1ccnc(C(C)(C)C(F)(F)F)c1` [ALPELISIB], for which the Kd in [1], in [2], in [3], in experiment [4], in experiment [5] and in experiment [6] was > 30 µM (inactive) throughout. Further, the Kd in experiment [7], in experiment [8], in experiment [9] and in experiment [10] was > 30 µM (inactive) in each case.

`Cc1csc(-c2nnc(Nc3ccc(Oc4ncccc4-c4ccnc(N)n4)cc3)c3ccccc23)c1` [AMG-900]: the Kd in experiment [1], in experiment [2], in experiment [3], in experiment [4], in [5] and in experiment [6] was > 30 µM (inactive) throughout. The Kd in experiment [7], in experiment [8], in experiment [9] and in [10] was > 30 µM (inactive) each time.

In the case of `C=CC(=O)Nc1cc2c(Nc3ccc(F)c(Cl)c3)ncnc2cc1C#CC(C)(C)N1CCN(C)CC1` [AV-412 FREE BASE], the Kd was > 30 µM (inactive) in experiment [1]; > 30 µM (inactive) in [2]; 6.27 µM (active) in [3]; > 30 µM (inactive) in experiment [4]; > 30 µM (inactive) in [5]; > 30 µM (inactive) in experiment [6]. For the same molecule, the Kd in [7] was > 30 µM (inactive); in [8], > 30 µM (inactive); in experiment [9], > 30 µM (inactive); in experiment [10] it was 0.01 µM (active).

Consider `CCn1c(C(=O)N(C2CC2)C2CC2)cc2c3c(ncn3C)c(Nc3cc(C)n(C)n3)nc21` [BMS-911543], for which the Kd in experiment [1], in [2], in experiment [3], in experiment [4], in experiment [5] and in experiment [7] was > 30 µM (inactive) in each case. For the same molecule, the Kd in experiment [8], in [9] and in [10] was > 30 µM (inactive) throughout.

Take `Cc1nc2cc(-n3ncc(C(=O)c4cc5ccccc5[nH]4)c3N)ccc2[nH]1` [FGFR INHIBITOR DEBIO 1347]: the Kd in [1], in experiment [2], in [3], in [4], in experiment [6] and in experiment [7] was > 30 µM (inactive) in each case. In addition, the Kd in experiment [8], in experiment [9] and in experiment [10] was > 30 µM (inactive) each time.
